# Data as given in ChEMBL document CHEMBL1147279, “6-Desmethoxyhormothamnione, a new cytotoxic styrylchromone from the marine cryptophyte Chrysophaeum taylori” (1989).
# The source made the active and inactive calls. No cut-off for these calls is given here.
# Assays:
# Pseudomonas aeruginosa = assay: Antimicrobial activity against Pseudomonas aeruginosa at 100 ug by paper disk assay; assay type: functional, organism-based
# Bacillus subtilis = assay: Antimicrobial activity against Bacillus subtilis at 100 ug by paper disk assay; assay type: functional, organism-based
# Staphylococcus aureus = assay: Antimicrobial activity against Staphylococcus aureus at 100 ug by paper disk assay; assay type: functional, organism-based
# Escherichia coli = assay: Antimicrobial activity against Escherichia coli at 100 ug by paper disk assay; assay type: functional, organism-based
# Candida albicans = assay: Antimicrobial activity against Candida albicans at 100 ug by paper disk assay; assay type: functional, organism-based
# [1] = Cytotoxicity against human 9KB cells; assay type: functional; conditions: read-out: LD50 (the source's name)
compound,measurement,setting,value
COc1cc(O)c2c(=O)c(C)c(/C=C/c3cc(O)cc(O)c3)oc2c1OC,Activity,Pseudomonas aeruginosa,inactive
same,Activity,Bacillus subtilis,inactive
same,Activity,Staphylococcus aureus,inactive
same,Activity,Escherichia coli,inactive
same,Activity,Candida albicans,inactive
same,CC50,[1],1 µg/mL
